Measurements: patent US20200261419A1, “COMBINATIONS FOR THE TREATMENT OF KIDNEY STONES” (Wake Forest University Health Sciences, priority 2015, published 2020)

Columns and labels:
[1] = target: T1, recombinant, human liver GO (the HAO1 gene product) (Homo sapiens, UniProt Q9UJM8); assay: GO inhibition, coupled DCIP assay; type: biochemical; settings: 37° C., 100 mM potassium phosphate pH 7.5, 75 μM DCIP, 3 mM glycolate; read-out: apparent Ki
T1 sequence (Q9UJM8 1-370): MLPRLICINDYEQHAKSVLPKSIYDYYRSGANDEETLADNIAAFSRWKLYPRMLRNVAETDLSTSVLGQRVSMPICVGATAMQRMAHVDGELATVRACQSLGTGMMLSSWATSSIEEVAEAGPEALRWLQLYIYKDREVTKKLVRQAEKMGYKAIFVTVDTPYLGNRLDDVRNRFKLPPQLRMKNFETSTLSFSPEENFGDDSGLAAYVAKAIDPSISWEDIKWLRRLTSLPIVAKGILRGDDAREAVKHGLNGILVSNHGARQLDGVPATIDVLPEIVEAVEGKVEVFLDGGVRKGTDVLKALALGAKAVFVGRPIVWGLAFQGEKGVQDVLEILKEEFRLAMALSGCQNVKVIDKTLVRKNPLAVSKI
Procedure: Testing of GO inhibitors. The inhibition of recombinant, human liver GO (the HAO1 gene product) is readily determined by a coupled assay that contains 2,6-dichloroindophenol (DCIP) (Murray et al. Biochemistry 47, 2439-2449, 2008). Briefly, GO is pre-incubated at 37° C. with or without inhibitor in 100 mM potassium phosphate pH 7.5 (0.1% DMSO final) for […]. An aliquot of pre-warmed DCIP and glycolate is added to start the reaction (final concentration 75 μM DCIP, 3 mM glycolate). The reaction rate is determined by monitoring the decrease at 600 nm (extinction coefficient of 21 mM^−1 cm^−1).

human HYPDH = target: T2, human HYPDH (Homo sapiens, UniProt Q9UF12); assay: Anaerobic titration of the FAD spectrum of HYPDH; type: binding
T2 construct: Only the constructs containing the residues 147-515 and 156-515 were >96% loaded with FAD+ and active; made in house; host or cells: Escherichia coli
T2 sequence (Q9UF12 71-439 limits assumed): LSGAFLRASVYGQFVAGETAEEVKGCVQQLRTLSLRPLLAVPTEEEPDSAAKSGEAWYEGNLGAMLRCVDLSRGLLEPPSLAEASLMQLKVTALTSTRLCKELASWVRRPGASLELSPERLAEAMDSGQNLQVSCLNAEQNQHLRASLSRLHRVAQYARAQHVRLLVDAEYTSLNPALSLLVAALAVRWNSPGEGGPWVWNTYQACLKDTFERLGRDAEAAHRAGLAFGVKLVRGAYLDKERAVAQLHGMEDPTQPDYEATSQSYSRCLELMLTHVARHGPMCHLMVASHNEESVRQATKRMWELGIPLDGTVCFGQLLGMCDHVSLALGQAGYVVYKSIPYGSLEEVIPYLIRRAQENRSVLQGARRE

Ki [1] | SMILES | Kd (human HYPDH)
~0.015 µM | CCCCCCCCCCCCSc1snnc1C(=O)O [CDST] | 
 | O=C(O)[C@@H]1C[C@@H](O)CN1 [Hyp, Hydroxyproline] | 125 µM
